Experimental findings from US20090281142A1, “THIAZOLE DERIVATIVE” (ASTELLAS PHARMA INC., priority 2005, published 2009) are described below.

In assay [1] the target is T1, recombinant human liver GK (GST-hGK2) (Homo sapiens, UniProt P35557).
T1 construct: cloning of ORF (open reading frame) was carried out by the following procedure based on AK122876.1; made in house; host or cells: E. coli
T1 sequence (P35557 1-466 isoform P35557-2): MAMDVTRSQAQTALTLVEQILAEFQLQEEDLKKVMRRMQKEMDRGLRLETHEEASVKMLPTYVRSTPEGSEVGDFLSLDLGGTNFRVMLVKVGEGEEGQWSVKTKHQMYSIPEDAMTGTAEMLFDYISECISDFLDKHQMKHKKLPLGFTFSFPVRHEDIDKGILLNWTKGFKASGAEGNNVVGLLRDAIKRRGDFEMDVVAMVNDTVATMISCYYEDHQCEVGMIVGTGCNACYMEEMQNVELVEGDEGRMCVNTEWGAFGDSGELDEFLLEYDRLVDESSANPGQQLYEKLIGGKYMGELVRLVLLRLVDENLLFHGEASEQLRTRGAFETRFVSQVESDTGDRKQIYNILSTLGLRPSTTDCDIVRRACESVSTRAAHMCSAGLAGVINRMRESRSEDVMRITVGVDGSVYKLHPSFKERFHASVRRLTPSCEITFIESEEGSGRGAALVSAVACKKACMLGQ
Put plainly: Measurement of GK activation. The following applies: 10 min; 10 μM test agent, 5 mM glucose, increase of absorbance (340 nm) in first 10 minutes relative to DMSO control. It is filed as biochemical. The method, then: Measurement of the GK activation by test agents was carried out in accordance with the method described in Science 301: 370-373, 2003, and by partially modifying this. The GK activity was measured as a change in absorbance based on the amount of NADPH which is converted from NADP (nicotinamide adenine dinucleotide phosphate) when glucose 6-phosphate produced by GK using glucose as the substrate is […] glucose-6-phosphate dehydrogenase.
Regarding the recombinant human liver GK (GST-hGK2) to be used in this assay, it was used by expressing as GST (glutathione S transferase)-fusion protein in E. coli and purifying by a Glutathione Sepharose column.
Regarding the sequence of glucokinase isoform 2, cloning of ORF (open reading frame) was carried out by the following procedure based on AK122876.1 (accession number). Using pME18S-FL3-Glucokinase isoform 2 as the template, PCR (polymerase chain reaction) was carried out using 5′-[…]-3′(SEQ ID NO:1) as the 5′ primer and 5′-[…]-3′ (SEQ ID NO:2) as the 3′ primer, and the PCR product was TA-cloned into pGEM-T easy vector. The sequence of this clone was confirmed by carrying out its sequencing. Thereafter, a fragment digested with EcoRI and XhoI was ligated to a vector pGEX-5X-1 digested in the same manner to prepare pGEX-human Glucokinase 2.
Regarding the enzyme reaction, the measurement was carried out at 27° C. using a 96 well flat bottom plate. As the enzyme mixed liquid, 25 mM HEPES pH 7.4; 25 mM KCl; 2 mM MgCl2; 1 mM ATP; 0.1% BSA; 1 mM DTT; 0.8 mM NADP; 2.5 U/ml glucose-6-phosphate dehydrogenase; GST-hGK2 (all in final concentration, however, the amount of GST-hGK2 was adjusted in such a manner that increase of absorbance of the DMSO control in 10 minutes (ΔOD) becomes about 0.12) was prepared. The enzyme mixed liquid was dispensed in 89 μl portions into the aforementioned plate, and a test agent dissolved in DMSO or the DMSO control was added thereto in 1 μl portions. Subsequently, glucose (5 mM in final concentration) was added as the substrate solution in 10 μl portions and the reaction was started at 27° C.
After commencement of the reaction, the absorbance was measured at a wavelength of 340 nm for 15 minutes at intervals of about 30 seconds, and the GK activation of each compound was calculated from the increase of absorbance during the first 10 minutes (ΔOD). Index of the GK activation of each test agent was calculated from the following formula as the GK activation (%).
GK activation (%)=[(ΔODTest)−(ΔODCont)]/(ΔODCont)×100
ΔODTest: ΔOD at 10 μM test agent
ΔODCont: ΔOD of DMSO control

The subject of a further assay is C57BL6 mice. The assay can be described thus: Hypoglycemic action in C57BL6 mice. It is filed as in vivo. To be noted: 10 mg/kg oral, 1 hour after administration, freely ingesting C57BL6 mice. The method, then: Body weights of freely ingesting C57BL6 mice (N=5) were measured. Each test compound was dissolved in Cremophor (registered trademark) solvent (Cremophor:DMSO:Water 5:5:90, v/v/v) to a concentration of 1 mg/ml. To each mouse was orally administered 10 ml/kg of the agent liquid (corresponds to the test compound of 10 mg/kg) or 10 ml/kg of the solvent control. Just before the administration of the test compound, about 60 μl of blood was collected from the venous plexus of the fundus of the eye using a capillary. Blood was collected in the same manner 1 or 4 hours after the administration of the test compound. Blood plasma was separated from the thus collected blood to measure the blood glucose level. The blood glucose level after 1 or 4 hours of the administration of the test compound was compared with the blood glucose level of the solvent control group at the same period of time.

Another assay deals with ICR mice. Put plainly: Action upon high blood glucose level after oral glucose loading in ICR mice. It is filed as in vivo. To be noted: 3 mg/kg oral, fasted ICR mice, AUC of blood glucose from administration until 2 hours after oral glucose loading (2 g/kg) vs solvent control. The method, then: After overnight fasting, body weights of ICR mice (N=5) were measured. Each test compound was dissolved in Cremophor solvent (Cremophor:DMSO:Water 5:5:90, v/v/v) to a concentration of 0.3 mg/ml. To each mouse was orally administered 10 ml/kg of the agent liquid (corresponds to the test compound of 3 mg/kg) or 10 ml/kg of the solvent control. Just before the administration of the test compound, about 60 μl of blood was collected from the venous plexus of the fundus of the eye using a capillary. After 30 minutes of the administration of the test compound, 200 mg/ml of glucose aqueous solution was orally administered at a dose of 10 ml/kg (corresponds to 2 g/kg). Just before the administration of glucose, about 60 μl of blood was collected from the venous plexus of the fundus of the eye using a capillary. Blood was collected in the same manner after 0.5, 1 and 2 hours of the glucose administration. Blood plasma was separated from the thus collected blood to measure the blood glucose level. AUC of the blood glucose level after the administration of the test compound until 2 hours after the glucose loading was compared with AUC of the solvent control group within the same period of time.

For `CS(=O)(=O)c1ccc([C@@H](CC2CCCC2)C(=O)Nc2nc(C(O)CO)cs2)cc1` (stereo partly drawn) [Ex 5, (2R)-3-cyclopentyl-N-[4-(1,2-dihydroxyethyl)-1,3-thiazol-2-yl]-2-[4-(methylsulfonyl)phenyl]propanamide], the activation at 10 µM in assay [1] is 263%. In the case of `CS(=O)(=O)c1ccc(/C(=C\C2CCCC2)C(=O)Nc2nc(C(O)CO)cs2)cc1` (stereo not drawn) [Ex 6, (2E)-3-cyclopentyl-N-[4-(1,2-dihydroxyethyl)-1,3-thiazol-2-yl]-2-[4-(methylsulfonyl)phenyl]acrylamide], the “blood glucose level lowered in comparison with the solvent control group” value with C57BL6 mice is reported as 22%. For the same compound, the activation at 10 µM in assay [1] worked out at 299%. With `O=C(Nc1nc(C(O)CO)cs1)C(CC1CCCC1)c1ccc(S(=O)(=O)C(F)(F)F)cc1` (stereo not drawn) [Ex 7, 3-cyclopentyl-N-[4-(1,2-dihydroxyethyl)-1,3-thiazol-2-yl]-2-{4-[(trifluoromethyl)sulfonyl]phenyl}propanamide], in assay [1], the activation at 10 µM turned out to be 214%. For `CC1(C)OCC(c2csc(NC(=O)/C(=C/C3CCCC3)c3ccc(S(C)(=O)=O)c(Cl)c3)n2)O1` (stereo not drawn) [Ex 10, (2E)-2-[3-chloro-4-(methylsulfonyl)phenyl]-3-cyclopentyl-N-[4-(2,2-dimethyl-1,3-dioxolan-4-yl)-1,3-thiazol-2-yl]acrylamide], the activation at 10 µM in assay [1] is 294%. As to `O=C(Nc1nc([C@H](O)CO)cs1)/C(=C/C1CCCC1)c1ccc(S(=O)(=O)C2CC2)cc1` [Ex 13, (2E)-3-cyclopentyl-2-[4-(cyclopropylsulfonyl)phenyl]-N-{4-[(1S)-1,2-dihydroxyethyl]-1,3-thiazol-2-yl}acrylamide], the activation at 10 µM in assay [1] came to 293%. For the same compound, the “Blood glucose lowering ratio (%)” value with ICR mice is 19%. Regarding `CC1(C)OCC(c2csc(NC(=O)/C(=C/C3CCCC3)c3ccc(S(C)(=O)=O)cc3)n2)O1` (stereo not drawn) [Ex 38, (2E)-3-cyclopentyl-N-[4-(2,2-dimethyl-1,3-dioxolan-4-yl)-1,3-thiazol-2-yl]-2-[4-(methylsulfonyl)phenyl]acrylamide], in assay [1], the activation at 10 µM is 239%. On the same count and under the same terms, with `CC(=O)OCC(O)c1csc(NC(=O)/C(=C/C2CCCC2)c2ccc(S(C)(=O)=O)cc2)n1` (stereo not drawn) [Ex 44] the figure was 283%; with `CS(=O)(=O)c1ccc([C@@H](CC2CCCC2)C(=O)Nc2nc(C(O)CO)c(Cl)s2)cc1` (stereo partly drawn) [Ex 49], 273%. With `O=C(Nc1nc(C(O)CO)cs1)/C(=C/C1CCCC1)c1ccc(S(=O)(=O)C2CCC2)cc1` (stereo not drawn) [Ex 62, (2E)-2-[4-(cyclobutylsulfonyl)phenyl]-3-cyclopentyl-N-[4-(1,2-dihydroxyethyl)-1,3-thiazol-2-yl]acrylamide], the activation at 10 µM in assay [1] was 227%. Besides, the “Blood glucose lowering ratio (%)” value in the assay with ICR mice stood at 19%. As to `CC(O)(CO)c1csc(NC(=O)/C(=C/C2CCCC2)c2ccc(S(=O)(=O)C3CC3)cc2)n1` (stereo not drawn) [Ex 63, (2E)-3-cyclopentyl-2-[4-(cyclopropylsulfonyl)phenyl]-N-[4-(1,2-dihydroxy-1-methylethyl)-1,3-thiazol-2-yl]acrylamide], in assay [1], the activation at 10 µM came to 241%. Also, the “Blood glucose lowering ratio (%)” value in the assay with ICR mice is on record as 35%. Regarding `O=C(Nc1nc(C(O)CO)cs1)[C@H](CC1CCCC1)c1ccc(S(=O)(=O)C2CC2)cc1` (stereo partly drawn) [Ex 66], the activation at 10 µM in assay [1] came out at 267%.

With `O=C(Nc1nc(CC(CO)CO)cs1)/C(=C/C1CCCC1)c1ccc(S(=O)(=O)C2CC2)cc1` [Ex 70, (2E)-3-cyclopentyl-2-[4-(cyclopropylsulfonyl)phenyl]-N-{4-[3-hydroxy-2-(hydroxymethyl)propyl]-1,3-thiazol-2-yl} acrylamide], the activation at 10 µM in assay [1] was found to be 244%. Take `O=C(Nc1nc(C(O)CCO)cs1)/C(=C/C1CCCC1)c1ccc(S(=O)(=O)C2CC2)cc1` (stereo not drawn) [Ex 71]: the activation at 10 µM in assay [1] was determined as 240%. Moreover, the “Blood glucose lowering ratio (%)” value in the assay with ICR mice is on record as 22%. The like results for `CC(O)(CO)c1csc(NC(=O)/C(=C/C2CCCC2)c2ccc(S(=O)(=O)C3CCC3)cc2)n1` (stereo not drawn) [Ex 73, (2E)-2-[4-(cyclobutylsulfonyl)phenyl]-3-cyclopentyl-N-[4-(1,2-dihydroxy-1-methylethyl)-1,3-thiazol-2-yl]acrylamide] were, in that order, 235% and 27%. Consider `CC(O)(CO)c1csc(NC(=O)[C@H](CC2CCCC2)c2ccc(S(=O)(=O)C3CC3)cc2)n1` (stereo partly drawn) [Ex 74, (2R)-3-cyclopentyl-2-[4-(cyclopropylsulfonyl)phenyl]-N-[4-(1,2-dihydroxy-1-methylethyl)-1,3-thiazol-2-yl]propanamide], for which, in assay [1], the activation at 10 µM turned out to be 260%. The “Blood glucose lowering ratio (%)” value with ICR mice was 23%. The corresponding values for `O=C(Nc1nc(C(=O)CO)cs1)/C(=C/C1CCCC1)c1ccc(S(=O)(=O)C2CC2)cc1` [Ex 77, (2E)-3-cyclopentyl-2-[4-(cyclopropylsulfonyl)phenyl]-N-(4-glycoloyl-1,3-thiazol-2-yl)acrylamide] are 217% and 18%.
